Data reported in publication PMC6470533, “Structure–Activity Study, Characterization, and Mechanism of Action of an Antimicrobial Peptoid D2 and Its D- and L-Peptide Analogues” (Molecules, 2019).
Values after ≈ are worked out from the molar mass of the structure shown. Non-standard residues stand in square brackets, D forms with d. Residues, ends and D or L forms follow the SMILES beside them. No end group written: not given here. 1Nal = N[C@@H](Cc1cccc2ccccc12)C(=O)O; Nle = CCCC[C@H](N)C(=O)O

Legend:
[1] = tested on: MRSP ST71 strain E104; assay: Growth curve analysis (BioScreen); assay type: cell-based, Staphylococcus pseudintermedius; details: at the MIC, MRSP E104, OD600, 6 h, 37 °C
Method: First, we performed growth curve analysis using the well-characterized MRSP ST71 strain E104, which is resistant to a number of antibiotics. […] A well-characterized antimicrobial peptide, nisin, was used as control. […] Increased concentrations of nisin inhibited proportionally the growth of E104, both at sub-MIC and MIC concentrations.
The effect of D2 or analogues or nisin on the growth of MRSP strain E104 was evaluated using BioScreen (Oy Growth Curves Ab LTd, Helsinki, Finland). Freshly grown culture of E104 was diluted to OD 0.2 at 600 nm, supplemented with increased concentration of antimicrobials and distributed in a 100 well honeycomb micro-plate with volume 100 μL. The plate was incubated for 6 h at 37 °C with continuous shaking. The OD600 of each micro-culture was measured and recorded every 15 min after a 5 s pause of shaking in automatic mode. Recorded OD was plotted against time to prepare the growth curves. Experiment was performed twice and one representative result was presented.

[2] = tested on: DNA synthesis in MRSP E104; assay: Macromolecule biosynthesis assay, DNA (3H-thymidine); assay type: cell-based, Staphylococcus pseudintermedius; details: 0.5× MIC, 20 min incubation, MRSP E104, 3H-thymidine; means of two experiments
Method: (§1) The effect on DNA and cell wall synthesis was investigated after 20 min of incubation of MRSP E104 with the precursors ^3H-thymidine and ^3H-glucosamine hydrochloride, respectively, as previously reported by Ling et al.. Following macromolecule precipitation, radioactivity was counted using scintillation fluid. Incorporation of ^3H- or ^14C-labeled thymidine has been used to investigate DNA replication and transcriptional activity during the cell cycle; ^3H-glucosamine hydrochloride has been used in a mode of action study for the antimicrobial peptide plectasin, which targets the cell wall precursor lipid II [44].
(§2) Macromolecules (DNA and cell wall) biosynthesis rates were measured using strain MRSP E104 following a protocol adapted from Ling et al.. Briefly, overnight culture of E104 was diluted 1:100 in MHB and freshly grown up to OD 0.2 at 600 nm. Grown cells were pelleted down by centrifugation and then resuspended in fresh MHB medium followed by incubation for 20 min on a dry heat-bath with D2 or analogues or nisin and radiolabeled precursor: (50 µCi) ^3H-Thymidine (PerkinElmer) and (5 µCi) ^3H-glucosamine hydrochloride per mL for DNA and cell wall, respectively. A positive control without antimicrobials was maintained that corresponds to 100% synthesis rate. After 20 min of incubation, samples were precipitated with equal volume of cold 30% trichloroactic acid (TCA Sigma, Søborg, Denmark) on ice. After 15 to 30 min of incubation on ice, precipitates were filtered on a membrane filter and subsequently washed twice with cold 15% TCA and twice with cold water using a vacuum manifold. Next, filters were air dried overnight and then moved to 10 mL scintillation vials. Finally, 3 mL scintillation fluid was added to each vial and ^3H count was taken in Beckman Coulter LS6500 liquid scintillation counter for 1 min. The radioactive counts of the control samples with no antimicrobial exposure were considered to have 100% precursor incorporation and macromolecule synthesis. The percentage rates of macromolecule synthesis in the antimicrobial-exposed samples were calculated compared to control. Each experiment was performed twice with a technical replicate, and the average rates of synthesis were plotted.

[3] = tested on: Pseudomonas aeruginosa (ATCC 27853); assay type: cell-based; details: ATCC 27853, 18 h
Method: To explore the antimicrobial activity of the library of peptides and peptidomimetics, they were tested against Acinetobacter baumannii, Corynebacterium auriscanis, Escherichia coli, Enterococcus faecalis, Enterococcus faecium, Klebsiella pneumonia, Proteus mirabilis, and Pseudomonas aeruginosa. Bacteria grown on agar plates for 18 h at 37 °C were diluted to ~1 × 10^8 CFU/mL in Mueller–Hinton broth (MHB). Two-fold serial dilutions of peptides and peptidomimetics in MHB II were inoculated with bacteria to achieve a final concentration of 5 × 10^5 CFU/mL in polypropylene 96 U-well microtiter plates (Almeco, Esbjerg, Denmark), followed by incubation at 37 °C in ambient air for 18 h. The MIC values were determined as the lowest concentration showing no visible bacterial growth. Experiments were performed twice (in technical triplicates) on two different days.

[4] = tested on: red blood cell (RBC); details: 0.5% RBC suspension in PBS, 1 h, 37 °C, read at 414 nm, normalized to mellitin and PBS, triplicates
Method: Briefly, 75 µL of peptide in PBS was mixed with 75 µL of a 0.5% red blood cell (RBC) suspension in PBS, and incubated for 1 h at 37 °C. The hemoglobin release was then measured at 414 nm and normalized, using mellitin as positive control and PBS as negative control. Experiments were done in triplicates.

[5] = tested on: Methicillin sensitive Staphylococcus pseudintermedius (26916); assay type: cell-based; details: 18 h
[6] = tested on: Staphylococcus aureus (ATCC 29213); assay type: cell-based; details: ATCC 29213, 18 h
[7] = tested on: membrane proton motive force of E104 cells; assay: DiSC3(5) fluorescence, membrane depolarization; assay type: cell-based, Staphylococcus pseudintermedius; details: 0.5× MIC, n = 2
Description: In this study, the DiSC3(5) probe was used to assess the effect of D2 and its structural analogues D2L, D2D, and D2R on cytoplasmic membrane depolarization. DiSC3(5) is a cationic carbocyanine dye, which accumulates on negatively charged membrane, translocates into lipid membrane with a distribution dependent on plasma and mitochondrial membrane potential. Altered emission profile of DiSC3(5) measured via fluorescence spectroscopy indicates membrane depolarization caused by proton motive force dissipation, ATP production and/or pore formation. The increment of DiSC3(5) fluorescence of labeled cells resulting from its leakage upon addition of antimicrobial agents is usually measured over time. The protonophore carbonyl cyanide metachlorophenyl hydrazone (CCCP) is used as positive control, which rapidly dissipates PMF increasing proton permeability, alters both membrane proton gradient and transmembrane electric potential and decreases cellular ATP content. Based on the MIC and growth analysis results, sub-lethal concentrations of D2 and selected analogues were chosen to perform DiSC3(5) fluorescence and macromolecule biosynthesis studies.
Freshly grown E104 cells with OD 0.2 at 600 nm were labeled with 1 µM 3,3-dipropylthiadicarbocyanine iodide [DiSC3(5)] (Sigma-Aldrich, Søborg, Denmark) in MHB. The fluorescence spectra of fluorophore-labeled cells were plotted using the LS-50B luminescence spectrometer (PerkinElmer, Waltham, MA, USA) at excitation/emission wavelengths 546 nm/573 nm using time drive application of FLWINLAB software. After reading initial stable emission spectra of DiSC3(5), labeled cells were exposed with D2 or analogues or nisin or protonophore CCCP by directly injecting the concentrated solution of agent to the cuvette, and the change of fluorescence over time was recorded until emission spectra reached to stability. The increment of DiSC3(5) fluorescence upon addition of antimicrobials or CCCP (FUafter-exposure – FUbefore-exposure) was calculated and plotted in addition to raw fluorescence spectra. Experiment was performed twice and average fluorescence change was plotted with standard deviation.

[8] = tested on: cell wall synthesis in MRSP E104; assay: Macromolecule biosynthesis assay, cell wall (3H-glucosamine hydrochloride); assay type: cell-based, Staphylococcus pseudintermedius; details: 0.5× MIC, 20 min incubation, MRSP E104, 3H-glucosamine hydrochloride; means of two experiments
Method: as §1, §2

[9] = tested on: Methicillin resistant Staphylococcus pseudintermedius, (C22963); assay type: cell-based; details: 18 h
[10] = tested on: S. aureus; design: method as in PMID 28262682; details: cited from earlier work

With `CCCC[C@H](NC(=O)[C@H](CCCCN)NC(=O)[C@H](Cc1cccc2ccccc12)NC(=O)[C@H](CCCCN)NC(=O)[C@H](Cc1ccccc1)NC(=O)[C@H](Cc1cccc2ccccc12)NC(=O)[C@H](CCCCN)NC(=O)[C@@H](N)CCCCN)C(N)=O` [D2L] (H-KK[1Nal]FK[1Nal]K[Nle]-NH2; N-terminus assumed) the “growth curve, change of cell optical density over time” value [1] was “cell lysis”, the “inhibition of DNA biosynthesis rate” value [2] was 17% and the “MIC PA” value [3] was 16 µg/mL (≈ 13.5 µM). For the same compound, the “HA, percentage of hemolysis at 150 µM” value [4] was 35%, the “MIC MSSP” value [5] was 16 µg/mL (≈ 13.5 µM) and the “MIC SA” value [6] was 32 µg/mL (≈ 27 µM). For the same compound, the “effect on PMF (membrane depolarization, DiSC3(5) fluorescence)” value (shortened to “effect on PMF”) [7] was “strongest effect on PMF”, the “effect on (inhibition of) cell wall synthesis” value [8] was 31% and the “MIC MRSP” value [9] was 8 µg/mL (≈ 6.75 µM).

For `CCCC[C@H](N)C(=O)N[C@@H](CCCCN)C(=O)N[C@@H](Cc1cccc2ccccc12)C(=O)N[C@@H](CCCCN)C(=O)N[C@@H](Cc1ccccc1)C(=O)N[C@@H](Cc1cccc2ccccc12)C(=O)N[C@@H](CCCCN)C(=O)N[C@@H](CCCCN)C(N)=O` [D2R] (H-[Nle]K[1Nal]KF[1Nal]KK-NH2; N-terminus assumed), the “growth curve, change of cell optical density over time” value [1] was “cell lysis”, the “inhibition of DNA biosynthesis rate” value [2] was under 5% and the “MIC PA” value [3] was 32 to 64 µg/mL. For the same compound, the “HA, percentage of hemolysis at 150 µM” value [4] was 23%, the “MIC MSSP” value [5] was 16 µg/mL (≈ 13.5 µM) and the “MIC SA” value [6] was 32 µg/mL (≈ 27 µM). For the same compound, the “effect on PMF” value [7] was “strongest effect on PMF”, the “effect on (inhibition of) cell wall synthesis” value [8] was 22% and the “MIC MRSP” value [9] was 4 µg/mL (≈ 3.38 µM).

In the case of KLKLLLLLKLK-NH2, the “antimicrobial activity (MIC) against S. aureus” value [10] is listed as 16 µg/mL.

With “nisin (ITSISLCTPGCKTGALMGCNMKTATCHCSIHVSK; also: lantibiotic: lanthionine rings and dehydro residues, places not given here; UniProt P13068 24-57, looked up) [well-characterized antimicrobial peptide used as control, reference compound]” the “inhibition of DNA biosynthesis rate” value [2] was 45% and the “effect on PMF” value [7] was “does not have any effect on PMF”.
